As a reminder, the IC50 is the concentration at which inhibition is half-maximal.

Sequence of human Bruton's Tyrosine Kinase (Btk) (Q06187 whole entry): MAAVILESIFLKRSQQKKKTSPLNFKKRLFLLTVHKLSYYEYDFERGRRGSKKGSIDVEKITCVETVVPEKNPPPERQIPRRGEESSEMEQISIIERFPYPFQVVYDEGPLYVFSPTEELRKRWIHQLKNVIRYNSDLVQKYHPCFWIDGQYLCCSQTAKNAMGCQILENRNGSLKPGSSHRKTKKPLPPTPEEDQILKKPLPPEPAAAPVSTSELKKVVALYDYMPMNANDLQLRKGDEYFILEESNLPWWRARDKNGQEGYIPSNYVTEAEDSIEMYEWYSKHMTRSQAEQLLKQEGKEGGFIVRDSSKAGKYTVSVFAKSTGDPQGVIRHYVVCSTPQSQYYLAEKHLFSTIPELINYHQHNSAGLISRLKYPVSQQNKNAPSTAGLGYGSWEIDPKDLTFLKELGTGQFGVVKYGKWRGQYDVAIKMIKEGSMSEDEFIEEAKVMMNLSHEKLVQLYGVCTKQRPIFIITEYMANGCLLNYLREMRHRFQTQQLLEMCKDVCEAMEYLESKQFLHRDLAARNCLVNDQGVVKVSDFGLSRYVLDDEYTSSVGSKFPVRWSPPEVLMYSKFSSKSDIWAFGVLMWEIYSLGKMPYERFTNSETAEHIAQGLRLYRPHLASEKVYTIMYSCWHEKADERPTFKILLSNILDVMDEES

The experiment addresses human Bruton's Tyrosine Kinase (Btk) (Homo sapiens (Human), UniProt Q06187). Briefly: Recombinant Human Bruton's Tyrosine Kinase (Btk) Inhibition Assay (HTRF KinEASE-TK). It is filed as biochemical. Particulars: 20 ng/ml rhBtk, 77 μM ATP (KM), 1 μM TK-Biotin substrate, 90 min; read-out: hBTK IC50. In general terms: Time-resolved FRET reads energy transfer from a long-lived donor to a nearby acceptor.
With `Cc1c(-c2ncnc3[nH]c(C4CCN(CCCO)CC4)cc23)cccc1N1CCOc2cc(C3CC3)ccc2C1=O` [Example P-3, 8-cyclopropyl-4-[3-[6-[1-(3-hydroxypropyl)-4-piperidyl]-7H-pyrrolo[2,3-d]pyrimidin-4-yl]-2-methyl-phenyl]-2,3-dihydro-1,4-benzoxazepin-5-one], the IC50 is greater than 1000 nM.

In the case of `O=C(O)c1ccc(-c2cc3c(-c4cccc(N5CCOc6cc(C7CC7)ccc6C5=O)c4CO)ccnc3[nH]2)nc1` [Example P-7, 6-[4-[3-(8-cyclopropyl-5-oxo-2,3-dihydro-1,4-benzoxazepin-4-yl)-2-(hydroxymethyl)phenyl]-1H-pyrrolo[2,3-b]pyridin-2-yl]pyridine-3-carboxylic acid], the IC50 is 46 nM.

Take `Cc1c(-c2ncnc3[nH]c(-c4ccc(C(=O)N5CCCC5)cc4)cc23)cccc1N1CCOc2cc(C3CC3)ccc2C1=O` [Example K-9, 8-cyclopropyl-4-[2-methyl-3-[6-[4-(pyrrolidine-1-carbonyl)phenyl]-7H-pyrrolo[2,3-d]pyrimidin-4-yl]phenyl]-2,3-dihydro-1,4-benzoxazepin-5-one]: the IC50 was determined as 137 nM.

Turning to `Cc1c(-c2ncnc3[nH]c(-c4ccc(CN5CCN(C)CC5)cc4)cc23)cccc1-n1ccc2cc(C3CC3)ccc2c1=O` [Example B-9, 6-cyclopropyl-2-[2-methyl-3-[6-[4-[(4-methylpiperazin-l-yl)methyl]phenyl]-7H-pyrrolo[2,3-d]pyrimidin-4-yl]phenyl]isoquinolin-1-one], the IC50 worked out at 10 nM.

For `O=C1c2ccc(C3CC3)cc2OCCN1c1cccc(-c2ccnc3[nH]c(-c4cnn(C5CCOCC5)c4)cc23)c1CO` [Example F-2, 8-cyclopropyl-4-[2-(hydroxymethyl)-3-[2-(1-tetrahydropyran-4-ylpyrazol-4-yl)-1H-pyrrolo[2,3-b]pyridin-4-yl]phenyl]-2,3-dihydro-1,4-benzoxazepin-5-one], the IC50 came to 43 nM.

For `Cc1c(-c2ncnc3[nH]c(-c4ccccc4)cc23)cccc1N1CCc2cc(C3CC3)ccc2C1=O` [Example M-2, 6-cyclopropyl-2-[2-methyl-3-(6-phenyl-7H-pyrrolo[2,3-d]pyrimidin-4-yl)phenyl]-3,4-dihydroisoquinolin-1-one], the IC50 was greater than 1000 nM.

Turning to `Cc1c(-c2ncnc3[nH]c(-c4ccccc4)cc23)cccc1N1CCOc2cc(C3CC3)ccc2C1=O` [Example M-1, 8-cyclopropyl-4-[2-methyl-3-(6-phenyl-7H-pyrrolo[2,3-d]pyrimidin-4-yl)phenyl]-2,3-dihydro-1,4-benzoxazepin-5-one], the IC50 is greater than 1000 nM.

With `Cc1c(-c2ncnc3[nH]c(-c4cccc(CN5CCOCC5)c4)cc23)cccc1N1CCc2cc(C3CC3)ccc2C1=O` [Example A-8, 6-cyclopropyl-2-[2-methyl-3-[6-[3-(morpholinomethyl)phenyl]-7H-pyrrolo[2,3-d]pyrimidin-4-yl]phenyl]-3,4-dihydroisoquinolin-1-one], the IC50 turned out to be 825 nM.

Take `O=C(N1CC=C(c2cc3c(-c4cccc(N5CCOc6cc(C7CC7)cc(F)c6C5=O)c4CO)ccnc3[nH]2)CC1)N1CCC1` [Example P-13, 4-[3-[2-[1-(azetidine-1-carbonyl)-3,6-dihydro-2H-pyridin-4-yl]-1H-pyrrolo[2,3-b]pyridin-4-yl]-2-(hydroxymethyl)phenyl]-8-cyclopropyl-6-fluoro-2,3-dihydro-1,4-benzoxazepin-5-one]: the IC50 turned out to be 1 nM.

As for `Cc1c(-c2ncnc3[nH]c(-c4ccc(C(=O)N5CCCC5C(=O)O)cc4)cc23)cccc1N1CCOc2cc(C3CC3)ccc2C1=O` (stereo not shown) [Example K-12, 1-[4-[4-[3-(8-cyclopropyl-5-oxo-2,3-dihydro-1,4-benzoxazepin-4-yl)-2-methyl-phenyl]-7H-pyrrolo[2,3-d]pyrimidin-6-yl]benzoyl]pyrrolidine-2-carboxylic acid], the IC50 is 114 nM.

(Values after US9233983B2, “Substituted hetero-bicyclic compounds, compositions and medicinal applications thereof” (ADVINUS THERAPEUTICS LIMITED, priority 2012, dated 2016).)
